According to patent US5470858A, “Derivatives of (hetero)aromatic ethers and thioethers having antihyperlipidemic activity, process for their preparation and pharmaceutical compositions containing them” (Pierrel SpA, priority 1991, dated 1995):
Read-outs that look alike come from different tables or passages of the source.

Key:
Type in all cases: in vivo
catalase enzyme = assay: Hepatic tolerability, 15 days at high dose: catalase enzyme activity in liver (index of peroxysomes proliferation); settings: rat liver, absolute values, solvent 539,8
Experimental: (§1) The hypolipemizing activity of the compounds of the present invention has been evaluated in the rat using SD male animals (Charles River) of an initial weight of 150 g, housed in controlled environment at a temperature of 21°±1° C., relative humidity 60% and a 12 hours light/dark cycle. The animals were fasted with this diet for 15 days consecutively, during which they received the pharmacological treatment once a day by oral route and were sacrificed 24 hours after the last administration. At the sacrifice time the blood was removed for the lipid determination and the liver was removed as well to be weighed and used for the evaluation of the catalase enzyme as the index of the peroxysomes proliferation and thus of hepatotoxicity. In order to evaluate the hepatic tolerability of the compounds of interest they have been administered for 15 days at a high dose (300 mg/kg/day) according to the same conditions of the previous experiment.24 hours after the last treatment the animals have been sacrificed, and the liver has been removed and stored at -20° C. up to the time of dosing the activity of the catalase enzyme (Methods of enzymatic analysis, vol.2, pag. 673, 1974 edit. H. U. Bergmeyer, Verlag Chemie International).

liver = assay: Hepatic tolerability, 15 days at high dose: hepatic index; settings: rat, absolute values, solvent 5,4
Experimental: as §1

[1] = system: hyperlipaemic SD male rats; assay: Hypolipemizing activity, 5 days experimental model, modified Nath diet; settings: rat, oral; for change in vivo at 100 mg/kg/day / change in vivo at 300 mg/kg/day: 120 h; for Hepatic index (percent variation vs hyperlipaemic controls): index = (Liver weight/body weight) × 100
Experimental: (§2) The hypolipemizing activity of the compounds of the present invention has been evaluated in the rat using SD male animals (Charles River) of an initial weight of 150 g, housed in controlled environment at a temperature of 21°±1° C., relative humidity 60% and a 12 hours light/dark cycle.
Experimental models have been used in which the animals are rendered hiperlipaemic by "ad libitum" food administration with a modified Nath diet (Atherosclerosis 30, 1978, pag. 45-46) having the following composition: […]
hydrogenated coconut oil
In the first model the animals have been fed with this diet for 5 consecutive days, during which they received the pharmacological treatment once a day by oral route and were sacrificed 2 hours after the last administration.
At the time of the sacrifice the blood was removed, for the lipid determination, as well as the liver the weight of which was the index of a possible hepatomegaly.
By this experimental model the concentration of the serum lipids attained very high values which, in the control group, was four times the normal values for the total cholesterol and the triglycerides.
(§3) The determination of the triglycerides, of the total cholesterol and of the cholesterol associated to the HDL has been effected by means of a commercial enzymatic kit. The concentration of the cholesterol associated to VLDL+LDL has been determined by difference between total cholesterol and HDL.
The results obtained in the experimental model of the 5 days duration for some compounds representative of the invention are reported in the following table 1. The data are expressed as percent variation with respect to the hyperlipaemic controls to which carboxymethylcellulose as 0.5% in water at the dose of 10 ml/kg/day by oral route was administered. The same vehicle was used for the suspension of the tested compounds at the doses of 100 and 300 mg/kg/day by oral route.

[2] = system: hyperlipaemic SD male rats; assay: Hypolipemizing activity, 15 days experimental model, modified diet; settings: rat, oral; for Cholesterol VLDL + LDL (percent variation vs hyperlipaemic controls): by difference between total and HDL; for Hepatic index (percent variation vs hyperlipaemic controls): index = (Liver weight/body weight) × 100
Experimental: as §2
Experimental models have been used in which the animals are rendered hiperlipaemic by "ad libitum" food administration with a modified Nath diet (Atherosclerosis 30, 1978, pag. 45-46) having the following composition:
In the second model a diet was used which was modified with respect to the former one by the following parameters: […]
The animals were fasted with this diet for 15 days consecutively, during which they received the pharmacological treatment once a day by oral route and were sacrificed 24 hours after the last administration. At the sacrifice time the blood was removed for the lipid determination and the liver was removed as well to be weighed and used for the evaluation of the catalase enzyme as the index of the peroxysomes proliferation and thus of hepatotoxicity.
This experimental model has been used only for the molecules which in the first model were found more promising, and has permitted to get values of the serum lipids from 2 to 3 times higher than the normal values both for the total cholesterol and for the triglycerides.
This experimental model was used to:
a) evaluate the effectiveness on a less marked hyperlipoproteinaemy, and
b) assess mainly at the hepatic level the tolerability of the compounds during a more extended treatment.
as §3
On the basis of the indications provided by this screening the most interesting compounds have been evaluated by the 15 days experimental model which permits both the evaluation of the effectiveness in the case of a hyperlipaemia less marked and more constant, and the tolerability control of the compounds during a longer term treatment.
In this case too the results (reported in the following table 2) are expressed as the percent variation with respect to the hyperlipaemic controls to which carboxymethylcellulose as 0.5% in water was administered by oral route at the dose of 10 ml/kg/day. The same vehicle was used for the suspension of the compounds being tested, administered at the doses; of 50 and 100 mg/kg/day by oral route.

[3] = 100 mg/kg/day, by difference between total and HDL, read-out: Cholesterol VLDL + LDL (percent variation vs hyperlipaemic controls)
[4] = 100 mg/kg/day, read-out: Cholesterol HDL (percent variation vs hyperlipaemic controls)
[5] = 100 mg/kg/day, read-out: Total Cholesterol (percent variation vs hyperlipaemic controls)
[6] = 100 mg/kg/day, read-out: Triglycerides (percent variation vs hyperlipaemic controls)
[7] = 300 mg/kg/day, by difference between total and HDL, read-out: Cholesterol VLDL + LDL (percent variation vs hyperlipaemic controls)
[8] = 300 mg/kg/day, read-out: Cholesterol HDL (percent variation vs hyperlipaemic controls)
[9] = 300 mg/kg/day, read-out: Total Cholesterol (percent variation vs hyperlipaemic controls)
[10] = 300 mg/kg/day, read-out: Triglycerides (percent variation vs hyperlipaemic controls)

CCOC(=O)C(C)(C)Oc1ccc(Cl)cc1 [Clofibrate, reference compound]
Catalase enzyme activity (catalase enzyme; 200 mg/kg, standard): 680,9 umoli/min/mg proteins
Hepatic index (Liver weight/body weight) × 100 (liver; 200 mg/kg, standard): 7,0

CC(C)COC(=O)c1ccc(OCC(=O)CSc2nc3ccccc3s2)cc1 [Example 2, 2-[3-[(p-isobutyloxycarbonyl)phenoxy]-2-oxo-propylthio]-benzothiazole]
change in vivo at 100 mg/kg/day [1, 3]: -14.7%
change in vivo at 100 mg/kg/day [1, 4]: 10.4%
change in vivo at 100 mg/kg/day [1, 5]: -13.2%
change in vivo at 100 mg/kg/day [1, 6]: -22.1%
change in vivo at 300 mg/kg/day [1, 7]: -21.8%
change in vivo at 300 mg/kg/day [1, 8]: 13.9%
change in vivo at 300 mg/kg/day [1, 9]: -19.5%
change in vivo at 300 mg/kg/day [1, 10]: -32.5%
Hepatic index (percent variation vs hyperlipaemic controls) ([1]; 100 mg/kg/day): -6,5%
Hepatic index (percent variation vs hyperlipaemic controls) ([1]; 300 mg/kg/day): -1,6%
Cholesterol HDL (percent variation vs hyperlipaemic controls) ([2]; 50 mg/kg/day): -24,5%
Total Cholesterol (percent variation vs hyperlipaemic controls) ([2]; 50 mg/kg/day): -13,1%
Triglycerides (percent variation vs hyperlipaemic controls) ([2]; 50 mg/kg/day): -0,2%
Cholesterol VLDL + LDL (percent variation vs hyperlipaemic controls) ([2]; 50 mg/kg/day): -12,0%
Hepatic index (percent variation vs hyperlipaemic controls) ([2]; 50 mg/kg/day): +3,5%
Cholesterol HDL (percent variation vs hyperlipaemic controls) ([2]; 100 mg/kg/day): -0,4%
Total Cholesterol (percent variation vs hyperlipaemic controls) ([2]; 100 mg/kg/day): -12,9%
Triglycerides (percent variation vs hyperlipaemic controls) ([2]; 100 mg/kg/day): -18,7%
Cholesterol VLDL + LDL (percent variation vs hyperlipaemic controls) ([2]; 100 mg/kg/day): -14,0%
Hepatic index (percent variation vs hyperlipaemic controls) ([2]; 100 mg/kg/day): -4,5%
Catalase enzyme activity (catalase enzyme; oral, 15 days, 300 mg/kg/day): 603,0 umoli/min/mg proteins
Hepatic index (Liver weight/body weight) × 100 (liver; oral, 15 days, 300 mg/kg/day): 6,0

CC(C)COC(=O)c1ccc(OCC(O)CSc2nc3ccccc3s2)cc1 (stereo not shown) [Example 6, 2-[3-[(p-isobutyloxycarbonyl)-phenoxy]-2-hydroxy-propylthio]-benzothiazole]
change in vivo at 100 mg/kg/day [1, 3]: -18.8%
change in vivo at 100 mg/kg/day [1, 4]: 7.7%
change in vivo at 100 mg/kg/day [1, 5]: -17%
change in vivo at 100 mg/kg/day [1, 6]: -15.6%
change in vivo at 300 mg/kg/day [1, 7]: -27.9%
change in vivo at 300 mg/kg/day [1, 9]: -24.9%
change in vivo at 300 mg/kg/day [1, 10]: -23.4%
Hepatic index (percent variation vs hyperlipaemic controls) ([1]; 100 mg/kg/day): +2,2%
Hepatic index (percent variation vs hyperlipaemic controls) ([1]; 300 mg/kg/day): +0,4%
Cholesterol HDL (percent variation vs hyperlipaemic controls) ([2]; 50 mg/kg/day): +1,0%
Total Cholesterol (percent variation vs hyperlipaemic controls) ([2]; 50 mg/kg/day): -16,1%
Triglycerides (percent variation vs hyperlipaemic controls) ([2]; 50 mg/kg/day): -18,2%
Cholesterol VLDL + LDL (percent variation vs hyperlipaemic controls) ([2]; 50 mg/kg/day): -19,0%
Hepatic index (percent variation vs hyperlipaemic controls) ([2]; 50 mg/kg/day): -1,7%
Cholesterol HDL (percent variation vs hyperlipaemic controls) ([2]; 100 mg/kg/day): +4,3%
Total Cholesterol (percent variation vs hyperlipaemic controls) ([2]; 100 mg/kg/day): -19,0%
Triglycerides (percent variation vs hyperlipaemic controls) ([2]; 100 mg/kg/day): -49,1%
Cholesterol VLDL + LDL (percent variation vs hyperlipaemic controls) ([2]; 100 mg/kg/day): -21,7%
Hepatic index (percent variation vs hyperlipaemic controls) ([2]; 100 mg/kg/day): -4,1%
Catalase enzyme activity (catalase enzyme; oral, 15 days, 300 mg/kg/day): 504,6 umoli/min/mg proteins
Hepatic index (Liver weight/body weight) × 100 (liver; oral, 15 days, 300 mg/kg/day): 5,9

CC(C)COC(=O)c1ccc(OCC(O)CSc2nc3ccccc3o2)cc1 (stereo not shown) [Example 11]
change in vivo at 100 mg/kg/day [1, 3]: -22.8%
change in vivo at 100 mg/kg/day [1, 4]: 9.5%
change in vivo at 100 mg/kg/day [1, 5]: -21.4%
change in vivo at 100 mg/kg/day [1, 6]: -21.6%
change in vivo at 300 mg/kg/day [1, 7]: -39.7%
change in vivo at 300 mg/kg/day [1, 8]: 14.9%
change in vivo at 300 mg/kg/day [1, 9]: -37.1%
change in vivo at 300 mg/kg/day [1, 10]: -30.3%
Hepatic index (percent variation vs hyperlipaemic controls) ([1]; 100 mg/kg/day): -2,3%
Hepatic index (percent variation vs hyperlipaemic controls) ([1]; 300 mg/kg/day): -1,7%
Cholesterol HDL (percent variation vs hyperlipaemic controls) ([2]; 50 mg/kg/day): -9,9%
Total Cholesterol (percent variation vs hyperlipaemic controls) ([2]; 50 mg/kg/day): -36,6%
Triglycerides (percent variation vs hyperlipaemic controls) ([2]; 50 mg/kg/day): -48,5%
Cholesterol VLDL + LDL (percent variation vs hyperlipaemic controls) ([2]; 50 mg/kg/day): -39,7%
Hepatic index (percent variation vs hyperlipaemic controls) ([2]; 50 mg/kg/day): +0,2%
Cholesterol HDL (percent variation vs hyperlipaemic controls) ([2]; 100 mg/kg/day): +16,1%
Total Cholesterol (percent variation vs hyperlipaemic controls) ([2]; 100 mg/kg/day): -34,4%
Triglycerides (percent variation vs hyperlipaemic controls) ([2]; 100 mg/kg/day): -46,8%
Cholesterol VLDL + LDL (percent variation vs hyperlipaemic controls) ([2]; 100 mg/kg/day): -40,2%
Hepatic index (percent variation vs hyperlipaemic controls) ([2]; 100 mg/kg/day): -3,1%
Catalase enzyme activity (catalase enzyme; oral, 15 days, 300 mg/kg/day): 444,7 umoli/min/mg proteins
Hepatic index (Liver weight/body weight) × 100 (liver; oral, 15 days, 300 mg/kg/day): 5,8

CC(C)COC(=O)c1ccc(OCC(=O)CSc2nc3c(N)ncnc3n2[C@@H]2O[C@H](CO)[C@@H](O)[C@H]2O)cc1 [Example 28]
change in vivo at 100 mg/kg/day [1, 3]: -15.1%
change in vivo at 100 mg/kg/day [1, 4]: 5.7%
change in vivo at 100 mg/kg/day [1, 5]: -14%
change in vivo at 100 mg/kg/day [1, 6]: -16.3%
change in vivo at 300 mg/kg/day [1, 7]: -33.7%
change in vivo at 300 mg/kg/day [1, 8]: 22.7%
change in vivo at 300 mg/kg/day [1, 9]: -31.3%
change in vivo at 300 mg/kg/day [1, 10]: -22.5%
Hepatic index (percent variation vs hyperlipaemic controls) ([1]; 300 mg/kg/day): -5,5%
Cholesterol HDL (percent variation vs hyperlipaemic controls) ([2]; 50 mg/kg/day): +11,3%
Total Cholesterol (percent variation vs hyperlipaemic controls) ([2]; 50 mg/kg/day): -23,3%
Triglycerides (percent variation vs hyperlipaemic controls) ([2]; 50 mg/kg/day): -27,3%
Cholesterol VLDL + LDL (percent variation vs hyperlipaemic controls) ([2]; 50 mg/kg/day): -28,1%
Hepatic index (percent variation vs hyperlipaemic controls) ([2]; 50 mg/kg/day): +0,6%
Cholesterol HDL (percent variation vs hyperlipaemic controls) ([2]; 100 mg/kg/day): +21,0%
Total Cholesterol (percent variation vs hyperlipaemic controls) ([2]; 100 mg/kg/day): -35,3%
Triglycerides (percent variation vs hyperlipaemic controls) ([2]; 100 mg/kg/day): -35,1%
Cholesterol VLDL + LDL (percent variation vs hyperlipaemic controls) ([2]; 100 mg/kg/day): -41,7%
Hepatic index (percent variation vs hyperlipaemic controls) ([2]; 100 mg/kg/day): -1,9%
Catalase enzyme activity (catalase enzyme; oral, 15 days, 300 mg/kg/day): 479,7 umoli/min/mg proteins
Hepatic index (Liver weight/body weight) × 100 (liver; oral, 15 days, 300 mg/kg/day): 5,6
